Measured values taken from doi:10.1101/2025.11.04.686469, “Discovery of Host-Directed Small Molecules with Broad Anti-Leishmanial Efficacy” (bioRxiv, 2025).
In brackets after ≈: the same amount, converted by molar mass. Like-named read-outs stand apart in the source and are kept apart here.

Tests used:
[1] = test system: intracellular L. donovani amastigotes; assay: Luminescent-based evaluation of intracellular anti-leishmanial activity in THP-1 macrophages; assay type: cell-based, Leishmania donovani; settings: for Selectivity 24h LC50 / Lum IC50: host-directed effect vs cytotoxicity
How it was run: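 PMA-differentiated THP-1 macrophages (150 nM, 72 h) were infected 18 h with firefly luciferase-expressing L. donovani LV82 promastigotes, then washed. Infected cells were treated with compounds at 0.1-10 μM for 72 h. Surviving intracellular amastigotes were quantified by firefly luciferase luminescence after cell lysis and 10 min substrate incubation at room temperature.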

THP-1 macrophages = assay: Effect of compounds on host cell viability (MTT); assay type: cell-based
How it was run: (§1)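 Viability was read as MTT reduction: 2 h with 0.5 mg/mL, formazan dissolved in isopropanol, A560 with 670 nm background subtracted. The macrophages were PMA-differentiated THP-1 cells (150 nM, 72 h), treated 24 h at 1–50 μM or, for some compounds, 72 h at 1–300 μM.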

[2] = test system: extracellular L. donovani promastigotes; assay: Effect of compounds on promastigote viability (resazurin assay); assay type: cell-based, Leishmania donovani; settings: for MIC50: 72-hour incubation
Description: (§2) The effect of compounds on extracellular promastigotes was evaluated using a resazurin-based assay as described previously. In short, late log phase Leishmania promastigotes were seeded in a 96 well plate at 1 x 10^5 parasites per well and treated with drugs (0.5 – 200 μM) for 72 hours at 25°C. Ten microliters of resazurin (0.02% w/v) were added to the treated parasites to achieve a final concentration of 0.002% w/v and incubated for 24 hours. Viability of the promastigotes was assessed by fluorescence (excitation 544 nm, emission 590 nm, SpectraMax M2, Molecular Devices).

[3] = test system: intracellular L. donovani amastigotes; assay: Image-based (Giemsa staining) evaluation of intracellular anti-leishmanial activity in bone marrow derived macrophages; assay type: cell-based, Leishmania donovani
Description: Bone marrow derived macrophages (BMDMs) were isolated from BALB/c mice and cultured as previously described. […] Completely differentiated BMDMs are obtained after 7 days of culture with media change every 2 days. Harvested cells were seeded onto 10 mm glass cover slips at 5 x 10^5 cells/ well of a 24 well plate in DMEM media (without LCM) and allowed to adhere overnight. […] After infection, cells were washed three times with fresh media to remove extracellular promastigotes and treated with compounds for a 72-hour incubation. BMDM cells were then washed with phosphate buffered saline, fixed with ice-cold methanol, and stained with Giemsa (5% v/v in water). The cover slips with stained cells are mounted onto glass slides and imaged on EVOS XL (100X, Thermo Fisher Scientific). Leishmania amastigotes per 100 macrophages were determined in a blinded manner.

[4] = Effect of compounds on host cell viability (MTT); assay type: cell-based; settings: human
How it was run: as §1

[5] = test system: extracellular L. mexicana promastigotes; assay: Effect of compounds on promastigote viability (resazurin assay); assay type: cell-based, Leishmania mexicana; settings: Leishmania mexicana, 72-hour incubation
Description: as §2

[6] = test system: intracellular L. mexicana amastigotes; assay: microbe, parasite or virus in culture; assay type: cell-based, Leishmania mexicana; settings: Leishmania mexicana, Macrophage, bone marrow derived macrophages, Giemsa staining
Description: Bone marrow derived macrophages (BMDMs) were isolated from BALB/c mice and cultured as previously described. Briefly, bone marrow was harvested from long bones of mice and the isolated cells were seeded at a concentration of 2 x 10^6 cells/mL in petri dishes with RPMI media supplemented with 10% FBS, 1% Penn-Strep and 10% L929 conditioned media (LCM). Completely differentiated BMDMs are obtained after 7 days of culture with media change every 2 days. Harvested cells were seeded onto 10 mm glass cover slips at 5 x 10^5 cells/ well of a 24 well plate in DMEM media (without LCM) and allowed to adhere overnight. BMDM cells are then infected overnight with LV82 L. donovani or L. mexicana (NR-51210) at a multiplicity of infection of 10. After infection, cells were washed three times with fresh media to remove extracellular promastigotes and treated with compounds for a 72-hour incubation. BMDM cells were then washed with phosphate buffered saline, fixed with ice-cold methanol, and stained with Giemsa (5% v/v in water). The cover slips with stained cells are mounted onto glass slides and imaged on EVOS XL (100X, Thermo Fisher Scientific). Leishmania amastigotes per 100 macrophages were determined in a blinded manner.

[7] = THP1 macrophages, luminescence assay, 72 hours of treatment, read-out: Intracellular L. donovani amastigotes Lum IC50
[8] = THP-1 macrophages, 72-hour incubation, MTT assay, read-out: 72 hr viability of THP-1 macrophages LC50
[9] = read-out: 24 hr viability of THP-1 macrophages 24h LC50, THP-1 macrophages, 24-hour incubation, MTT assay
[10] = resazurin assay, read-out: Extracellular L. donovani promastigotes MIC50
[11] = Giemsa staining, 72-hour incubation, read-out: Intracellular L. donovani amastigotes IC50
[12] = Leishmania donovani, THP-1, THP1 macrophages, luminescence assay, 72 hours of treatment, read-out: Intracellular L. donovani amastigotes Lum IC50
[13] = Leishmania donovani, resazurin assay (Table 3), read-out: L. donovani Extracellular promastigotes MIC50
[14] = Leishmania donovani, resazurin assay, read-out: Extracellular L. donovani promastigotes MIC50
[15] = Leishmania donovani, Macrophage, 72 h, Giemsa staining, 72-hour incubation, read-out: Intracellular L. donovani amastigotes IC50
[16] = Leishmania donovani, Macrophage, Giemsa staining (Table 3), read-out: L. donovani Intracellular amastigotes IC50
[17] = intracellular Leishmania donovani in THP1 macrophages, luminescence assay (Supplemental Table 2), read-out: Lum IC50
[18] = read-out: 24h LC50, THP1 macrophages, 24-hour incubation, MTT assay (Supplemental Table 2)

| SMILES | IC50 [1, 7] | CC50 (THP-1 macrophages; [8]) | CC50 (THP-1 macrophages; [9]) | MIC50 [2, 10] | IC50 [3, 11] | further results |
| --- | --- | --- | --- | --- | --- | --- |
| FC(F)(F)c1ccc(-c2nc(C(F)(F)F)cn2-c2ccc(NC3CCNCC3)cc2)cc1 [Compound 408] | 1.5 µM | 25.1 µM | 25.4 µM | 0.9 µM (≈ 0.409 µg/mL) | 2.6 µM |  |
| Nc1ccc(CNC2CCN(c3ccc(-n4nc(C(F)(F)F)cc4-c4ccc(-c5ccc(C(F)(F)F)cc5)cc4)cc3)C2)cc1 (stereo not drawn) [Compound 23] | 0.4 µM | 6.9 µM | 5.8 µM | 4.0 µM (≈ 2.49 µg/mL) | 0.9 µM |  |
| CC(C)(C)C#Cc1ccc(-c2cc(C(F)(F)F)nn2-c2ccc(N3CCNCC3)cc2)cc1.Cl [Compound 44] | 0.9 µM | 14.5 µM | 7.4 µM | 1.9 µM | 1 µM |  |
| N#Cc1cccc(CN2CCC(Nc3ccc(-n4nc(C(F)(F)F)cc4-c4ccc(-c5ccc(C(F)(F)F)cc5)cc4)cc3)C2)c1 (stereo not drawn) [Compound 53] |  |  |  |  |  | IC50 [1, 12]: 0.4 µM; Selectivity 24h LC50 / Lum IC50 [1]: >112.6; CC50 at 24 h [4]: > 50 µM; CC50 at 72 h [4]: > 300 µM; CC50 (THP-1 macrophages): > 300 µM; reduction in macrophage viability (THP-1 macrophages; 72hr incubation up to 300μM): Neither compound had any reduction; MIC50 [2, 13]: > 200 µM; MIC50 [2, 14]: > 200 µM; direct effect on extracellular promastigote viability ([2]; resazurin assay, strain not named for 53, L. donovani for 197): no direct effects; IC50 [3, 15]: 1.1 µM; IC50 [3, 16]: < 2 µM; MIC50 [5]: > 200 µM |
| NCC(=O)Nc1ccc(-n2nc(C(F)(F)F)cc2-c2ccc3c(ccc4ccccc43)c2)cc1 [AR-12, reference compound] |  |  |  |  |  | CC50 at 24 h [4]: 13.3 µM; CC50 at 72 h [4]: 8.6 µM; MIC50 [2, 13]: 2.2 µM (≈ 1.01 µg/mL); MIC50 [2, 14]: 2.2 µM (≈ 1.01 µg/mL); IC50 [3, 15]: 2.2 µM; IC50 [3, 16]: 2.2 µM; MIC50 [5]: 15.1 µM (≈ 6.95 µg/mL); IC50 [6]: 1.5 µM |
| O=C(Nc1ccc(-n2cc(C(F)(F)F)nc2-c2ccc(-c3ccccc3)cc2)cc1)C1CCN(Cc2ccccc2)C1 (stereo not drawn) [Compound 86] | 1.4 µM | 8.2 µM | 21.9 µM | 3.2 µM (≈ 1.81 µg/mL) | 0.6 µM |  |
| N[C@@H]1CCN(c2ccc(-n3nc(C(F)(F)F)cc3-c3ccc(-c4ccc(C(F)(F)F)cc4)cc3)cc2)C1 [Compound 129] | 0.1 µM | 6.2 µM | 6.3 µM | 1.7 µM (≈ 0.878 µg/mL) | 0.4 µM |  |
| FC(F)(F)c1ccc(-c2ccc(-c3cc(C(F)(F)F)nn3-c3ccc(NC4CCNC4)cc3)cc2)cc1 (stereo not drawn) [Compound 25] | 0.7 µM | 6.3 µM | 28.9 µM | 2.1 µM (≈ 1.08 µg/mL) | 2.5 µM |  |
| N#Cc1ccc(CNCC(=O)Nc2ccc(-n3nc(C(F)(F)F)cc3C3CCCCC3)cc2)cc1 [Compound 354] |  |  |  |  |  | IC50 [1, 12]: 0.5 µM; Selectivity 24h LC50 / Lum IC50 [1]: 44.9; CC50 at 24 h [4]: 22 µM; CC50 at 72 h [4]: 20.2 µM; MIC50 [2, 13]: 22.1 µM (≈ 10.6 µg/mL); MIC50 [2, 14]: 22.1 µM (≈ 10.6 µg/mL); IC50 [3, 15]: 0.4 µM; IC50 [3, 16]: 0.4 µM; MIC50 [5]: 30.7 µM (≈ 14.8 µg/mL); IC50 [6]: 3.5 µM |
| Oc1ccc(CNC2CCN(c3ccc(-n4nc(C(F)(F)F)cc4C4CCCCC4)cc3)CC2)cc1 [Compound 319] | 0.8 µM | 7.2 µM | 6.4 µM | 0.8 µM (≈ 0.399 µg/mL) | 3.4 µM |  |
| N[C@H]1CCN(c2ccc(-n3nc(C(F)(F)F)cc3-c3ccc(-c4ccc(C(F)(F)F)cc4)cc3)cc2)C1 [Compound 130] | 0.2 µM | 6.4 µM | 4.2 µM | 2.1 µM (≈ 1.08 µg/mL) | 1.6 µM |  |
| Oc1ccccc1CN1CCC(Nc2ccc(-n3nc(C(F)(F)F)cc3-c3ccc(-c4ccc(C(F)(F)F)cc4)cc3)cc2)C1 (stereo not drawn) [Compound 91] | 1.4 µM | 53.4 µM | > 50 µM | 56.3 µM (≈ 35.1 µg/mL) | 2.4 µM |  |
| CC(C)(C)OC(=O)NC1CCN(c2ccc(-n3nncc3-c3ccc(C(F)(F)F)cc3)cc2)C1 (stereo not drawn) [Compound 133] | 0.9 µM | 33.9 µM | 29 µM | 13.0 µM (≈ 6.16 µg/mL) | 1.7 µM |  |
| NCC(=O)Nc1ccc(-n2cc(C(F)(F)F)nc2-c2ccc(-c3ccccc3)cc2)cc1 [Compound 50] | 1.5 µM | 42.7 µM | 23.5 µM | 14.6 µM (≈ 6.37 µg/mL) | 9.1 µM |  |
| FC(F)(F)c1ccc(-c2ccc(-c3cc(C(F)(F)F)nn3-c3ccc(N4CCNCC4)cc3)cc2)cc1 [Compound 220] |  |  |  |  |  | IC50 [1, 17]: 1.3 µM; CC50 (THP-1 macrophages; [18]): 15.4 µM |
| CC(C)(C)OC(=O)NC1CCN(c2ccc(-n3cc(C(F)(F)F)nc3-c3ccc(-c4ccccc4)cc3)cc2)C1 (stereo not drawn) [Compound 82] |  |  |  |  |  | IC50 [1, 17]: > 10 µM; CC50 (THP-1 macrophages; [18]): > 50 µM |
| FC(F)(F)c1cc(C2CCCCC2)n(-c2ccc(OC3CCNC3)cc2)n1 (stereo not drawn) [Compound 375] |  |  |  |  |  | IC50 [1, 17]: 6.3 µM; CC50 (THP-1 macrophages; [18]): 12.3 µM |
| CC(C)(C)OC(=O)NCC(=O)Nc1ccc(-n2cnc3ccccc32)cc1 [Compound 148] |  |  |  |  |  | IC50 [1, 17]: > 10 µM; CC50 (THP-1 macrophages; [18]): > 50 µM |
